Measured values reported in US7135337B2, “Insect expression vectors” (priority 1997, dated 2006).

Columns and labels:
Cf1 cell line = conditions: TC-100 + 10% FBS
Description: (§1) The dipteran (D. melanogaster) cell lines Kc1 and SL2, and the lepidopteran cell lines Sf9 (S. frugiperda), Ld652Y (L. dispar) and Cf1 (Choristoneura fumeferana) were tested for sensitivity to Zeocin in order to establish whether Zeocin was toxic in standard culture conditions to cell lines from these disparate insect orders. Zeocin is thought to exert its toxic effects by binding to DNA to induce double strand breaks. Such strand cleavage is thought to inhibit growth by disruption of DNA replication, which in turn interferes with subsequent cell division. Accordingly, cells already committed to division would not be expected to be affected by Zeocin until the next round of DNA replication; it would therefore be expected that cells treated with Zeocin may divide once, but will be unable to undergo further mitotic divisions since their DNA will not be intact.
(§2) In accordance with the current understanding of Zeocin's mechanism of action, the minimal inhibitory concentration of Zeocin is described herein as the amount of antibiotic required to limit the culture to one doubling. Growth curves for the determination of inhibitory concentrations of Zeocin in the Kc1, SL2 and Sf9 cell lines (FIG. 4a) were performed in rotating 1.5 ml microcentrifuge tubes containing 1 ml of TC-100 complete medium (pH=6.2) with 10% fetal bovine serum (Life Technologies, Gaithersburg, Md., U.S.A.), 0.5–1.0×10^6 cells and varying concentrations of Zeocin (obtained from Invitrogen, San Diego, Calif.) at 27° C. Samples were removed daily, stained with 0.4% trypan blue and the number of viable cells determined in quadruplicate using a hemocytometer. The minimal inhibitory Zeocin concentrations affecting Ld652Y and Cf1 cell lines were determined by seeding approximately 5,000 cells in a total volume of 200 μl TC-100 complete medium +10% fetal bovine serum+Zeocin into wells of 96 well microtitre plates.

Kc1 cell line = test system: Kc1 cell line
Description: as §1, §2

Ld652Y cell line = conditions: Zeocin 10 μg/ml
Description: as §1, §2

Sf9 cell line = conditions: TC-100 + 10% FBS, 27° C.
Description: as §1, §2

Description for SL2 cell line: The dipteran (D. melanogaster) cell lines Kc1 and SL2, and the lepidopteran cell lines Sf9 (S. frugiperda), Ld652Y (L. dispar) and Cf1 (Choristoneura fumeferana) were tested for sensitivity to Zeocin in order to establish whether Zeocin was toxic in standard culture conditions to cell lines from these disparate insect orders. […] Accordingly, cells already committed to division would not be expected to be affected by Zeocin until the next round of DNA replication; it would therefore be expected that cells treated with Zeocin may divide once, but will be unable to undergo further mitotic divisions since their DNA will not be intact.
In accordance with the current understanding of Zeocin's mechanism of action, the minimal inhibitory concentration of Zeocin is described herein as the amount of antibiotic required to limit the culture to one doubling. […] Samples were removed daily, stained with 0.4% trypan blue and the number of viable cells determined in quadruplicate using a hemocytometer.

For `Cc1c(N)nc([C@H](CC(N)=O)NC[C@H](N)C(N)=O)nc1C(=O)N[C@H](C(=O)N[C@H](C)[C@@H](O)[C@H](C)C(=O)N[C@H](C(=O)NCCC1=N[C@@H](c2nc(C(=O)NCCCCN=C(N)N)cs2)CS1)[C@@H](C)O)[C@@H](O[C@@H]1O[C@@H](CO)[C@@H](O)[C@H](O)[C@@H]1O[C@H]1O[C@H](CO)[C@@H](O)[C@H](OC(N)=O)[C@@H]1O)c1cnc[nH]1` [Zeocin], the “Zeocin concentration found to inhibit growth” value (C6/36 cell line) was 250 µg/mL, the “Zeocin concentration that inhibited more than one round of cell division” value (SL2 cell line; TC-100 + 10% FBS, 27° C.) was over 75 mg/mL and the “effect on growth rate” value (SL2 cell line; Zeocin 10 μg/ml) was “dramatic reductions in growth rates”. The “Zeocin concentration required to completely inhibit further cell division” value (Cf1 cell line) was “at least 250 μg/ml”, the “Zeocin concentration that inhibited more than one round of cell division” value (Kc1 cell line; TC-100 + 10% FBS, 27° C.) was “greater than 50 μg/ml” and the “effect on growth rate” value (Kc1 cell line; Zeocin 10 μg/ml) was “dramatic reductions in growth rates”. For the same compound, the “effect on growth rate” value (Ld652Y cell line) was “dramatic reductions in growth rates”, the “Zeocin concentration required to completely inhibit further cell division” value (Sf9 cell line) was “at least 250 μg/ml” and the “Zeocin concentration found to inhibit growth” value (Hi5 cell line) was 800 µg/mL.
